Assay results as given in publication PMC8581430, “Peptide ligands targeting FGF receptors promote recovery from dorsal root crush injury via AKT/mTOR signaling” (Theranostics, 2021).

What was measured:
[1] = system: ERK1/2 (phosphorylated) in DRG explants; assay: Western blot of phosphorylated ERK1/2 in DRG explants; assay type: cell-based, rat; conditions: CH02 20 μM + BGJ398 2 μM, 4 h, n = 3
Source text: (§1) Figure 6 Phosphoproteomic profiling of the intracellular signaling pathway used by CH02 for augmenting nerve regeneration. (A) GO biological process analysis of proteins corresponding to differentially expressed phosphorylated peptides. Ordinates indicate the enriched GO terms; abscissae represent the gene ratio; size of the dots indicates the number of proteins enriched in this biological process. (B) KEGG pathway analysis of proteins corresponding to differentially expressed phosphorylated peptides. Ordinates indicate the enriched pathway term; abscissae represent the gene ratio; size of the dots indicates number of proteins enriched in this pathway. […] (D-E) Quantification of p-ERK1/2 and p-AKT expression levels. n = 3 independent experiments. Relative protein expression level was quantified after normalization to the corresponding total proteins. […] (G-H) Quantification of p-ERK1/2 and p-AKT expression levels. n = 3 independent experiments. Relative protein expression level was quantified after normalization to the corresponding total proteins. […] The axon is shown in fluorescence (NF200) images. […] For quantification of axon length, neurons were immunostained using an antibody against β-tubulin. […] (N) Quantification of TUNEL-positive neurons (M) using ImageJ software (n = 5 for each condition; ***p < 0.001 by one-way ANOVA with Dunnett's test; mean ± SEM). […]

[2] = system: AKT (phosphorylated) in DRG explants; assay: Western blot of phosphorylated AKT in DRG explants; assay type: cell-based, rat; conditions: CH02 20 μM + BGJ398 2 μM, 4 h, n = 3
Source text: as §1

primary DRG neurons = assay: TUNEL assay of DRG neuron apoptosis induced by H2O2; assay type: cell-based, Sprague-Dawley rat; conditions: CH02 + inhibitor 24 h, then H2O2 12 h, n = 5
Protocol: Figure 3 Effect of the CH02 peptide on axon growth and neuron survival. (A) Representative images of the CH02 peptide effect on axon growth in adult primary DRG neurons. DRG neurons were obtained from adult Sprague-Dawley rats. After 12-h of culture, neurons were stimulated with CH02 or bFGF for 48 h. Axonal outgrowth was assessed by immunocytochemistry using an antibody against β-tubulin, an axonal marker. Images were acquired from random neurons by fluorescence microscopy. Scale bars = 50 μm. (B) Quantification of the longest axon length of each neuron randomly selected in three independent experiments from (A), using Image-Pro Plus 6.0 software (n = 48 for each condition; *p < 0.05, ****p < 0.0001 by one-way ANOVA with Dunnett's test; ns, not significant; mean ± SD). […] The axon is shown in fluorescence (β3-tubulin) images. […] (D) Quantification of axon growth of DRG explants from (C) using the Neurite-J software (n=4 for each condition; *control vs. CH02; #control vs. bFGF; *p < 0.05, **p < 0.01, ***p < 0.001, #p < 0.05, ##p < 0.01 by two-way ANOVA with Dunnett's test; ns, not significant; mean ± SEM). […] LDH released from damaged cell membranes was detected by an LDH assay kit. The results are expressed as the mean ± SEM (**p < 0.01 by one-way ANOVA with Dunnett's test; ns, not significant, compared with the control group). […] Apoptotic neurons were detected by a TUNEL apoptosis assay kit. […]

Structure (SMILES)	effect of inhibitor on CH02-upregulated phosphorylated ERK [1]	effect of inhibitor on CH02-upregulated phosphorylated AKT [2]	effect of inhibitor on protective effect of CH02 against H2O2-induced apoptosis (primary DRG neurons)
CCN1CCN(c2ccc(Nc3cc(N(C)C(=O)Nc4c(Cl)c(OC)cc(OC)c4Cl)ncn3)cc2)CC1 [BGJ398]	counteracted CH02 effect on upregulating phosphorylated AKT and ERK levels	counteracted CH02 effect on upregulating phosphorylated AKT and ERK levels	
N#CC(=C(/N)Sc1ccccc1N)/C(C#N)=C(/N)Sc1ccccc1N [U0126]			significantly reduced the protective effect of CH02 on neurons from apoptosis induced by H2O2
